US20060122153A1, “Antineoplastic ether lipid compounds with modifications at the sn-2 carbon” (priority 2003, published 2006)
Where “and” joins values, the source holds several entries; their conditions need not be identical. Equal entries are not always repeated. Where two headings read alike, the source gives them in different places.

Experiments:
WI38 = settings: for GI50: WI38 normal human fibroblast cell line, 3 days
Text: (§1) The following cell lines were selected from the cell bank for screening and GI50 studies: MCF-7: human breast tumor, MCF-7/ADR: MCF-7 adriamycin resistant subline, HT-29: human colon carcinoma, A-549: human non-small cell lung cancer, NIH-3T3: mouse Swiss embryo fibroblast and WI-38: human lung fibroblast, SKMEL-28: human melanoma, Lewis Lung: mouse lung carcinoma, DU-145: prostate carcinoma, B16F10: mouse melanoma, L1210: murine lymphocytic leukemia, P-388: murine leukemia, U-937: human histolytic lymphoma. Except HT-29, WI-38, NIH-3T3 and Lewis Lung which were obtained from the American Type Culture Collection (Rockville, Md.) all the other cell lines were obtained from National Cancer Institute—Frederick Research Facility (Frederick, Md.). All the cell lines were grown in RPMI-1640 medium containing 10% fetal bovine serum (FBS) except WI-38 and DU-145 which were grown in EMEM+10% FBS at 37° C., 5% CO2 and 100% humidity and NIH-3T3, Lewis Lung, B16F10 and L1210 which were grown in DMEM containing 10% FBS (10% HS for L1210). All the adherent cell lines were detached from the culture flasks by addition of 2-3 ml of 0.05% trypsin-EDTA. Thereafter, trypsin was inactivated by addition of 10 mL of 10% serum-containing RPMI-1640 medium. Cells were separated into a single-cell suspension by gentle pipetting action. Depending on the cell type, […] to 10,000 cells were plated onto 96-well plates a day prior to the drug treatment, in a volume of 100 μl per well.
(§2) The test compounds were made in-house and the compounds were dissolved PBS or saline at a stock concentration of approximately 20 mM, which is 400 times the desired final maximum test concentration. The stock solutions were then diluted with complete medium to twice the desired final concentration. 100 μl aliquots of each dilution was then added to the designated wells. After 3 days of incubation, cell growth was determined.
(§3) The SRB assay was performed as described by Monks, A., Scudiero, D., Skehan, P., Shoemaker, R., Paull, K., Vistica, D., Hose, C., Langley, J., Cronise, P., and Vaigro-Wolff, A. Feasibility of a high-flux anticancer drug screen using a diverse panel of cultured human tumo-r cell lines. J Natl Cancer Inst, 83: 757-766, 1991 with minor modifications. Following drug treatment, cells were fixed with 50 μl of cold 50% (wt/vol) trichloroacetic acid (TCA) for 60 minutes at 4° C. The supernatant was discarded, and the plates were washed six times with deionized water and then air dried. The precipitate was stained with 100 μl SRB solution (0.4% wt/vol in 1% acetic acid) for 10 minutes at room temperature, and free SRB was removed by washing three times with 1% acetic acid, and the plates were then air dried. Bound SRB was solubilized with Tris buffer (10 mM), and the ODs were read using an automated plate reader (Bio-Rad, Model 3550-UV) at 490 nm. Background values were subtracted from the test data, and the data was calculated as a % of control. […] Percentage growth was calculated as described by, Peters, A. C., Ahmad, I., Janoff, A. S., Pushkareva, M. Y., and Mayhew, E. Growth Inhibitory effects of liposome-associated 1-o-octadecyl-2-o-methyl-sn-glycero-3-phosphocholine. Lipids, 32:1045-1054, 1997. The raw optical density data Was imported into an Excel spreadsheet to determine dose responses. […] By varying drug concentration,-dose response curves were generated and the GI-50 values were calculated. The GI50 values for each experiment were calculated using data obtained from three duplicate wells on two separate plates.
(§4) For growth inhibitory evaluation, we used five human tumor cell lines (U937; HT29; A549; MCF7; MCF7/ADR) and two normal fibroblast cell lines (NIH-3T3, murine; WI-38, human).

HT29 = assay: In vitro growth inhibition (GI50), SRB assay; format: cell-based, human; settings: HT29 tumor cell line, 3 days
Text: as §1, §2, §3, §4

A549 = assay: In vitro growth inhibition (GI50), SRB assay; format: cell-based, human; settings: A549 tumor cell line, 3 days
Text: as §1, §2, §3, §4

MCF7 = assay: In vitro growth inhibition (GI50), SRB assay; format: cell-based, human; settings: for GI50: MCF7 tumor cell line, 3 days; for effect on MCF7 growth compared to ET-18-OCH3 (in words): separate in-house study, Table 3
Text: as §1, §2, §3, §4

MCF7/ADR = assay: In vitro growth inhibition (GI50), SRB assay; format: cell-based, human; settings: MCF7/ADR tumor cell line, 3 days
Text: as §1, §2, §3, §4

[1] = test system: platelets in dog whole blood; assay: Platelet aggregation in whole blood (Chronolog whole blood aggregometer)
Description: Briefly, whole citrated blood is diluted 1:2 with sterile saline and placed in a warm chamber with a mini stir bar. An electronic probe, measuring electrical resistance, is inserted in the sample. The aggregometer is calibrated and the baseline is observed to detect any spontaneous aggregation. The test sample is added and allowed to run for at least 6 minutes. If the sample is an agonist the platelets will start to aggregate and stick to the electronic probe causing resistance across the electrodes to increase. This resistance, in ohms, is measured 6 minutes post addition of sample. The test samples are run at 25, 100, 200, 400 and 800 uM and compared to 100 uM L-ET-18-OCH3.
Collection of Blood Sample for in vitro Platelet Aggregation Testing: Venous blood is collected in 4.5 mL Vacutainer tubes containing 0.129 M sodium citrate using a 21G needle or larger. Blood is immediately mixed by gentle inversion 15-20 times and kept at room temperature. Dilution ratio is 1 to 9 (3.8% citrate solution:blood). One (2.0 mL) Vacutainer tube containing EDTA is also collected for platelet counts. Complete blood counts (CBC) are measured on the CDC Technologies Hemavet 1500 to ensure that the test subject's platelets are within normal range. Amy vials of hemolytic blood or blood containing any clots should be discarded. Platelet aggregation testing must be completed within 3 hours of blood collection. After this time the ability of platelets to aggregate decreases.
Dilutions were prepared in PBS or saline at 40× concentration. (25 uL test sample are added to 1000 uL diluted blood (1:40)).

UO-31 = assay: NCI growth inhibition screen, renal panel; format: cell-based, human; parameters: key to Performance as compared to ET-18-O—CH3: = means equivalent activity; + means that it appears to be significantly better (i.e., by ˜2x); < means it appears to be less active than ET18OCH3 (˜2x); a combination like =/+ or </+ means that activity is dependent upon the isomer; a combination like =/+ or </+ means that activity is dependent upon the isomer; settings: for Performance as compared to ET-18-O—CH3: UO-31, Renal, from GI50s; for activity compared to ET-18-OCH3 (in words): UO-31 cell line, NCI screen
Description: (§5) Candidates deemed suitable for in vivo testing were then synthesized in large scale quantities and some of this material was sent to the NCI's Developmental Therapeutics Program for a battery of growth inhibitory studies against various human tumor cell lines (60 cell lines, 9 different panels). The remainder of the material was used to assess in vivo efficacy using murine tumor models. Additionally, studies were conducted on the lead candidates to discern mechanism of action with particular emphasis on these agents apoptotic ability as measured by caspase 3 activity. The details (materials and methods) for these various assays are described further in the following discussion.
(§6) Ten compounds were also sent to NCI's Drug Discovery Program for screening against numerous human tumor cell lines (9 panels total: renal ovarian, colon, CNS, non-small cell lung, leukemia, breast, melanoma, and prostate). The data are shown in FIGS. 2a-i which also include data regarding D- and L-ET-18-OCH3 (listed as L-EL and D-EL in the figures). Upon examining the data, one is struck by how 1R and 1a′S standout in comparison to the other compounds, especially for the renal, ovarian, colon, and CNS panels.

NCI-H226 = assay: NCI growth inhibition screen, non-small cell lung panel; format: cell-based, human; parameters: key to Performance as compared to ET-18-O—CH3: = means equivalent activity; + means that it appears to be significantly better (i.e., by ˜2x); < means it appears to be less active than ET18OCH3 (˜2x); a combination like =/+ or </+ means that activity is dependent upon the isomer; a combination like =/+ or </+ means that activity is dependent upon the isomer; settings: for Performance as compared to ET-18-O—CH3: NCI-H226, NS cell lung, from GI50s; for activity compared to ET-18-OCH3 (in words): NCI-H226 cell line, NCI screen
Description: as §5, §6

[2] = test system: human tumor cell lines (9 panels); assay: NCI growth inhibition screen, all panels; format: cell-based; settings: for activity as compared to ET-18-OCH3 (in words): all NCI panels; for activity compared to ET-18-OCH3 isomers (in words): colon and CNS panels of cell lines
Description: as §5, §6

## CCCCCCCCCCCCCCCCCCOCC(COP(=O)([O-])OCC[N+](C)(C)C)OC [D-ET18OCH3, 1-O-octadecyl-2-O-methyl-glycerophosphocholine, reference compound]
WI38
  GI50: 10 to 13.5 µM
HT29
  GI50: 5.1 µM
A549
  GI50: 8 µM
MCF7
  GI50: 14.6 µM
MCF7/ADR
  GI50: 25.1 µM

## CCCCCCCCCCCCCCCCCCOC[C@@H](COP(=O)([O-])OCC[N+](C)(C)C)OS(C)(=O)=O [1a′S]
[1]; 25 μM
  Relative Platelet Aggregation (Ohms): 0 Ohms
[1]; 100 μM
  Relative Platelet Aggregation (Ohms): 0 Ohms
[1]; 200 μM
  Relative Platelet Aggregation (Ohms): 0 Ohms
[1]; 400 μM
  Relative Platelet Aggregation (Ohms): 0 Ohms
[1]; 800 μM
  Relative Platelet Aggregation (Ohms): 0 Ohms
WI38
  cytotoxicity to normal human fibroblast as compared to ET-18-OCH3 (in words): less cytotoxic
  GI50: 16.3 µM
UO-31
  Performance as compared to ET-18-O—CH3: 64
  activity compared to ET-18-OCH3 (in words): more active
NCI-H226
  Performance as compared to ET-18-O—CH3: 32
  activity compared to ET-18-OCH3 (in words): significantly better than ET-18-OCH3
HT29
  GI50: 2.6 µM
A549
  GI50: 9.3 µM
MCF7
  GI50: 31.3 µM
  effect on MCF7 growth compared to ET-18-OCH3 (in words): appeared worse
MCF7/ADR
  GI50: 39 µM
[2]
  activity as compared to ET-18-OCH3 (in words): equal or greater in activity
  activity compared to ET-18-OCH3 isomers (in words): more active than even the ET-18-OCH3 isomers

## CCCCCCCCCCCCCCCCCCOCC(COP(=O)([O-])OCC[N+](C)(C)C)OS(C)(=O)=O (stereo not drawn) [Compound 1aR]
[1]
  platelet aggregation response (in words): none of the “L” isomer compounds (1cR or 1aR) evoked an aggregatory response
[1]; 25 μM
  Relative Platelet Aggregation (Ohms): 0 Ohms
[1]; 100 μM
  Relative Platelet Aggregation (Ohms): 0 Ohms
[1]; 200 μM
  Relative Platelet Aggregation (Ohms): 0 Ohms
[1]; 400 μM
  Relative Platelet Aggregation (Ohms): 0 Ohms
[1]; 800 μM
  Relative Platelet Aggregation (Ohms): 0 Ohms
WI38
  GI50: 40.9 µM
WI38; WI-38
  cytotoxicity to normal human fibroblast as compared to ET-18-OCH3 (in words): less cytotoxic
UO-31
  Performance as compared to ET-18-O—CH3: +
  activity compared to ET-18-OCH3 (in words): more active
NCI-H226
  Performance as compared to ET-18-O—CH3: +
  activity compared to ET-18-OCH3 (in words): significantly better than ET-18-OCH3
HT29
  GI50: 2.1 µM and 2.3 µM
A549
  GI50: 6 µM and 6.6 µM
MCF7
  GI50: 24.3 µM and 26.4 µM
  effect on MCF7 growth compared to ET-18-OCH3 (in words): appeared worse
MCF7/ADR
  GI50: > 40 µM
[2]
  activity as compared to ET-18-OCH3 (in words): equal or greater in activity
  activity compared to ET-18-OCH3 isomers (in words): more active than even the ET-18-OCH3 isomers
